Assay results as given in patent US20140296265A1, “Method of Treating Lymphoma Using Pyridopyrimidinone Inhibitors of PI3K/mTOR” (Sanofi, priority 2011, published 2014).

Legend:
[1] = Phase 1 dose-escalation study: safety and tolerability (MTD, adverse events); type: in vivo
Procedure: (§1) A Phase I, non-randomized, open-label, dose-escalation study was conducted for Compound A using two dosing schedules to evaluate the safety, PK, and pharmacodynamics of Compound A in subjects with solid tumors or lymphoma.
Patients were treated with a conventional ‘3+3’ dose-escalation design with cohorts of three to six subjects for up to nine different dose levels on each dosing schedule.
(§2) Patients received 5, 10 or 50 mg of Compound A either twice daily (bid) or daily (qd) for 28-day cycles. Pharmacokinetics and pharmacodynamic analyses were performed, and tumor response was assessed every 8 weeks.

[2] = Phase 1 dose-expansion lymphoma cohort: safety and tolerability; type: in vivo, human
Text: The following phase 1 study was designed to evaluate the safety and pharmacokinetics of Compound A administered as a continuous daily dosing regimen in an expansion cohort of subjects with relapsed or refractory lymphoma.
(§3) This was a Phase 1, open-label, non-randomized trial of Compound A given orally as a single agent in subjects with lymphoma. The maximum tolerated dose expansion cohort planned enrollment was at least 15 subjects.
The primary objective was to determine the safety and tolerability of Compound A administered orally, twice daily, as a continuous daily dosing regimen to subjects with relapsed or refractory lymphoma.
(§4) The key eligibility include the following: • Histologically confirmed diagnosis of relapsed or refractory lymphoma • Measureable disease • Adequate bone marrow function defined as: • ANC≧1000/mm3 (chronic lymphocytic leukemia with ANC≧500/mm3) • Platelets≧30,000/mm3 • Hemoglobin≧8 g/dL • Availability of archival or fresh tumor tissue • No prior therapy with a selective PI3K inhibitor • Written informed consent.

[3] = tested on: relapsed or refractory lymphoma; assay: Phase 1 dose-expansion lymphoma cohort: best response; type: in vivo, human
Text: as §3
The exploratory objectives were to determine (a) the pharmacodynamic effects of Compound A in subjects with lymphoma; (b) the preliminary efficacy data (response rate) for Compound A; and (c) the long-term safety and tolerability of Compound A after repeated twice daily administration.
as §4

[4] = tested on: PI3K and MAPK pathways; assay: Pharmacodynamic analyses in paired tumor tissue: phospho-markers; type: in vivo, human; settings: for % Decrease p4EBP1T70 / % Decrease pAKTS473 / % Decrease pAKTT308 / % Decrease pERKT202/Y204: Mantle Cell Lymphoma, 50 mg BID, PTEN-def
Procedure: (§5) The secondary objectives were to determine (a) the plasma pharmacokinetics of Compound A continuous daily dosing; and (b) the pharmacodynamic effects of Compound A on tumor tissue. […] This finding is also reflected in FIG. 3, which depicts PTEN IHC and Ki67 IF staining of lymphoma tumor cells treated with Compound A. PTEN expression was evaluated by immunohistochemistry in formalin fixed, paraffin-embedded tissue sections FFPE (5 micron) with anti-PTEN antibody (NCL-PTEN, clone 28H6, diluted 1/300, Novocastra Laboratories Ltd) utilizing standardized procedures. Cryopreserved tumor biopsy samples were serially sectioned at 5 microns and converted in FFPE sections.

[5] = tested on: PI3K and ERK pathway signaling; assay: Phase 1 dose-escalation study: pharmacodynamics in paired tumor biopsies; type: in vivo, human
Procedure: as §1, §2

[6] = tested on: solid tumors or lymphoma; assay: Phase 1 dose-escalation study: tumor response; type: in vivo, human
Procedure: as §1, §2

[7] = tested on: mantle cell lymphoma tumor; assay: Pharmacodynamic analyses in paired tumor tissue: Ki67 and TUNEL; type: in vivo, human
Procedure: as §5

[8] = human, in vivo, 50 mg, 27 day
Text: The secondary objectives were to determine (a) the plasma pharmacokinetics of Compound A continuous daily dosing; and (b) the pharmacodynamic effects of Compound A on tumor tissue.

[9] = Phase 1 dose-escalation study: plasma pharmacokinetics; type: in vivo, human
Procedure: as §1, §2

[10] = lymphoma cohort, sixteen subjects
[11] = Diffuse Large B-cell Lymphoma, n 2, twice daily continuous dosing
[12] = Follicular Lymphoma, n 4, twice daily continuous dosing
[13] = Mantle Cell Lymphoma, n 5, twice daily continuous dosing
[14] = paired biopsies of diverse solid tumors, five patients, 50 mg bid
[15] = Mantle Cell Lymphoma, 50 mg BID, D 56 post dose, PTEN-def

SMILES: CCn1c(=O)c(-c2ccn[nH]2)cc2c(C)nc(N)nc21 [Compound A, 2-amino-8-ethyl-4-methyl-6-(1H-pyrazol-5-yl)pyrido[2,3-d]pyrimidin-7(8H)-one]
- maximum tolerated dose (MTD) ([1]; bid schedule): 50 mg
- most common related adverse events ([1]; in vivo): nausea, diarrhea, anorexia, elevated liver enzymes, skin and subcutaneous disorders, and vomiting
- tolerability ([1]; in vivo): generally well-tolerated
- maximum tolerated dose (MTD) ([1]; qd schedule): 90 mg
- ALT increased, All Adverse Events, All Grades ([2]; human, in vivo): 3 (19) n (%)
- ALT increased, All Adverse Events, Grade ≧ 3 ([2]; human, in vivo): 2 (13) n (%)
- ALT increased, Related Adverse Events, All Grades ([2]; human, in vivo): 3 (19) n (%)
- ALT increased, Related Adverse Events, Grade ≧ 3 ([2]; human, in vivo): 2 (13) n (%)
- AST increased, All Adverse Events, All Grades ([2]; human, in vivo): 4 (25) n (%)
- AST increased, All Adverse Events, Grade ≧ 3 ([2]; human, in vivo): 0 n (%)
- AST increased, Related Adverse Events, All Grades ([2]; human, in vivo): 3 (19) n (%)
- AST increased, Related Adverse Events, Grade ≧ 3 ([2]; human, in vivo): 0 n (%)
- Anemia, All Adverse Events, All Grades ([2]; human, in vivo): 3 (19) n (%)
- Anemia, All Adverse Events, Grade ≧ 3 ([2]; human, in vivo): 2 (13) n (%)
- Anemia, Related Adverse Events, All Grades ([2]; human, in vivo): 1 (6) n (%)
- Anemia, Related Adverse Events, Grade ≧ 3 ([2]; human, in vivo): 0 n (%)
- Asthenia, All Adverse Events, All Grades ([2]; human, in vivo): 3 (19) n (%)
- Asthenia, All Adverse Events, Grade ≧ 3 ([2]; human, in vivo): 2 (13) n (%)
- Asthenia, Related Adverse Events, All Grades ([2]; human, in vivo): 0 n (%)
- Asthenia, Related Adverse Events, Grade ≧ 3 ([2]; human, in vivo): 0 n (%)
- Creatinine increased, All Adverse Events, All Grades ([2]; human, in vivo): 3 (19) n (%)
- Creatinine increased, All Adverse Events, Grade ≧ 3 ([2]; human, in vivo): 0 n (%)
- Creatinine increased, Related Adverse Events, All Grades ([2]; human, in vivo): 0 n (%)
- Creatinine increased, Related Adverse Events, Grade ≧ 3 ([2]; human, in vivo): 0 n (%)
- Diarrhea, All Adverse Events, All Grades ([2]; human, in vivo): 6 (38) n (%)
- Diarrhea, All Adverse Events, Grade ≧ 3 ([2]; human, in vivo): 0 n (%)
- Diarrhea, Related Adverse Events, All Grades ([2]; human, in vivo): 3 (19) n (%)
- Diarrhea, Related Adverse Events, Grade ≧ 3 ([2]; human, in vivo): 0 n (%)
- Discontinuations of treatment: Adverse event ([2]; human, in vivo): 2 (13) n (%)
- Dose modification due to treatment-related toxicities: AST/ALT increase ([2]; human, in vivo): 2 (40) n (%)
- Dose modification due to treatment-related toxicities: Amylase increase ([2]; human, in vivo): 1 (20) n (%)
- Dose modification due to treatment-related toxicities: Nausea ([2]; human, in vivo): 2 (40) n (%)
- Fatigue, All Adverse Events, All Grades ([2]; human, in vivo): 3 (19) n (%)
- Fatigue, All Adverse Events, Grade ≧ 3 ([2]; human, in vivo): 1 (6) n (%)
- Fatigue, Related Adverse Events, All Grades ([2]; human, in vivo): 1 (6) n (%)
- Fatigue, Related Adverse Events, Grade ≧ 3 ([2]; human, in vivo): 0 n (%)
- Hyperglycemia, All Adverse Events, All Grades ([2]; human, in vivo): 3 (19) n (%)
- Hyperglycemia, All Adverse Events, Grade ≧ 3 ([2]; human, in vivo): 0 n (%)
- Hyperglycemia, Related Adverse Events, All Grades ([2]; human, in vivo): 1 (6) n (%)
- Hyperglycemia, Related Adverse Events, Grade ≧ 3 ([2]; human, in vivo): 0 n (%)
- Nausea, All Adverse Events, All Grades ([2]; human, in vivo): 5 (31) n (%)
- Nausea, All Adverse Events, Grade ≧ 3 ([2]; human, in vivo): 0 n (%)
- Nausea, Related Adverse Events, All Grades ([2]; human, in vivo): 5 (31) n (%)
- Nausea, Related Adverse Events, Grade ≧ 3 ([2]; human, in vivo): 0 n (%)
- Patients requiring dose modification due to toxicity ([2]; human, in vivo): 12 (75) n (%)
- Patients requiring dose modification due to treatment-related toxicities ([2]; human, in vivo): 5 (31) n (%)
- Pyrexia, All Adverse Events, All Grades ([2]; human, in vivo): 4 (25) n (%)
- Pyrexia, All Adverse Events, Grade ≧ 3 ([2]; human, in vivo): 0 n (%)
- Pyrexia, Related Adverse Events, All Grades ([2]; human, in vivo): 0 n (%)
- Pyrexia, Related Adverse Events, Grade ≧ 3 ([2]; human, in vivo): 0 n (%)
- Discontinuations of treatment ([2]; in vivo): 14 (88) n (%)
- tolerability ([2]; in vivo): well tolerated
- Discontinuations of treatment: Death (unrelated to study drug) [2, 10]: 1 (6) n (%)
- Discontinuations of treatment: Progressive disease [2, 10]: 8 (50) n (%)
- Best Response: subjects with Partial Response [3, 11]: 1
- Best Response: subjects with Progressive Disease [3, 11]: 1
- Best Response: subjects with Progressive Disease [3, 12]: 1
- Best Response: subjects with Stable Disease [3, 12]: 3
- Best Response: subjects with Stable Disease ([3]; Hodgkin's Lymphoma, n 1, twice daily continuous dosing): 1
- Best Response: subjects with Partial Response [3, 13]: 1^b
- Best Response: subjects with Progressive Disease [3, 13]: 1
- Best Response: subjects with Stable Disease [3, 13]: 3 c
- Best Response: subjects with Partial Response ([3]; Transformed Lymphoma, n 1, twice daily continuous dosing): 1 days
- % Decrease p4EBP1T70 ([4]; D 27 post dose): 60%
- % Decrease pAKTS473 ([4]; D 27 post dose): 70%
- % Decrease pAKTT308 ([4]; D 27 post dose): 65%
- % Decrease pERKT202/Y204 ([4]; D 27 post dose): 15%
- % Decrease p4EBP1T70 ([4]; D 56 post dose): 60%
- % Decrease pAKTS473 ([4]; D 56 post dose): 73%
- % Decrease pAKTT308 ([4]; D 56 post dose): 88%
- % Decrease pERKT202/Y204 ([4]; D 56 post dose): 74%
- inhibition of the PI3K and MAPK pathways ([4]; mantle cell lymphoma tumor): robust inhibition of the PI3K and MAPK pathways
- post-dose reduction in p4EBP1 [5, 14]: 62-80%
- post-dose reduction in pAKT-T308 [5, 14]: 57-71%
- post-dose reduction in pERK [5, 14]: 53-80%
- pharmacodynamic modulation of PI3K and ERK pathway signaling ([5]; tumors and surrogate tissues, repeat-dose administration): Robust pharmacodynamic modulation
- patients on study for ≧16 weeks ([6]; in vivo): Eleven
- patients on treatment for ≧24 weeks ([6]; in vivo): seven
- tumor response ([6]; one patient with mantle cell lymphoma, treated for 12 cycles): one partial response in MCL
- activity in solid tumor patients ([6]; solid tumor patients): prolonged disease stabilization
- % Decrease Ki67 ([7]; Mantle Cell Lymphoma, 50 mg BID, D 27 post dose, PTEN-def): 98%
- % Decrease Ki67 [7, 15]: 99%
- TUNEL (fold increase) [7, 15]: 1.5 fold
- inhibition of Ki67 proliferation ([7]; mantle cell lymphoma tumor): near complete inhibition of Ki67 proliferation
- accumulation (AUCtau) on day 27 [8]: approximately 3 fold
- exposure versus dose ([9]; bid and qd schedules): increase with increasing dose
- half-life ([9]; human, plasma, oral, at steady-state, read-out: Mean t1/2,z): 3 to 9 h
- Tmax ([9]; human, plasma, oral, post-dose, read-out: Median tmax): 1 to 3 h
